Assays:
[1] = test system: Penicillium funiculosum CECT 2914; settings: Fungi; cited from earlier work
[2] = test system: endospores from Bacillus subtilis ATCC 6633; assay: Sporicidal activity, quantitative suspension test EN 13704:2002 (Example 1); assay type: cell-based; settings: 20° C.; for Test of LAE sporicidal activity (Na), surviving spores count: 0.3% bovine serum albumin, N 1.8 × 10^7 cfu/mL
Protocol: The determination of the sporicidal activity of LAE has been carried out according to the European standard EN 13704:2002 “Chemical disinfectant—Quantitative suspension test for the evaluation of sporicidal activity of chemical disinfectants used in food, industrial, domestic and institutional areas—Test method and requirements”.
A test suspension containing endospores from Bacillus subtilis ATCC 6633 was prepared from a culture grown on a nutrient agar, to which additional sporulation enhancement ingredients were added. Plates were harvested with sterile water and endospores were purified by repeated centrifugations and resuspensions in water.
Neutralizer. The neutralizer mixture consisted of 12.7% polysorbate 80, 6.0% Tamol® SN (brand of sodium salt of naphthalene-formaldehyde condensate), 1.7% lecithin, 1% peptone and 0.1% cystine. The solution was intended to neutralize any chemicals so that these would not affect subsequent growth of the bacteria.
The sporicidal activity of a given product is defined by its capacity to reduce at least by 10^3 the amount of Bacillus subtilis bacterial spores in suspension, in the conditions established in the method.
The product was in contact with a suspension of bacterial spores during an established period of time of 60 minutes. An interfering substance can be added to the suspension, in this case 0.3% bovine serum albumin in distilled water. Next, the effect of the product is neutralized by adding a neutralizer previously chosen, preceding to the surviving spores count.
• 1. Spore suspension obtained from a spored-form culture of Bacillus subtilis. • 2. Count of the spore suspension of Bacillus subtilis. • 3. The possible toxic effect of the neutralizer on the spores in the absence of the product is valued. • 4. Evaluation of the neutralizing effect of the neutralizer over the product. • 4. Evaluation of the inhibitory effect of the product. • 5. Result calculation. Results: Results are expressed as the reduction of viability of the spore suspension in regards to:
(§1) Tabulation of the Method and Test Validation Results (at 20° C.):
The sporicidal activity is calculated as follows: R=N×0.1/Na N is cfu/mL of the spore suspension. Na is cfu/mL of the sporicidal activity. The calculated reduction of a solution of: • 50 ppm of LAE is R=3.5×10^2 cfu/mL • 100 ppm of LAE is R=3.4×10^2 cfu/mL • 150 ppm of LAE is R=4.3×10^2 cfu/mL • 250 ppm of LAE is R>10^3 cfu/mL
A product is considered sporicidal if its use results in a reduction in the number of Bacillus subtilis bacterial spores equal or above 10^3 after being in contact for 60 minutes in the conditions set in […].

[3] = test system: Proteus mirabilis CECT 170; settings: Gram − Bacteria; cited from earlier work
[4] = test system: Salmonella typhimurium ATCC16028; settings: Gram − Bacteria; cited from earlier work
[5] = test system: Lactobacillus delbrueckii ssp lactis CECT 372; settings: Gram + Bacteria; cited from earlier work
[6] = test system: Listeria monocytogenes ATCC 7644; settings: Gram + Bacteria; cited from earlier work
[7] = test system: Micrococcus luteus ATCC 9631; settings: Gram + Bacteria; cited from earlier work
[8] = test system: Clostridium perfringens ATCC 77454; settings: Gram + Bacteria; cited from earlier work
Escherichia coli 0157H7 = settings: Gram − Bacteria; cited from earlier work
[9] = test system: Aspergillus niger fungical spores; assay: Fungicide activity, UNE-EN 1275 (Example 2); assay type: cell-based; settings: 20° C.; for Test of LAE fungicide activity (Na), surviving spores count: N 5 × 10^7 cfu/mL
From the text: The determination of the fungicide activity of LAE has been carried out according to the European standard UNE-EN 1275: “Chemical disinfectant and antiseptic. Fungicide activity. Test method and requirements”.
The fungicide activity of a given product is defined by its capacity to reduce at least by 10^4 the amount of Aspergillus niger fungical spores in suspension, in the conditions established in the method.
The product is in contact with a suspension of fungical spores during an established period of time (60 minutes). After this time, the effect of the product is neutralized by adding Polysorbate 80 in water solution at 2%, preceding to the surviving spores count.
• 1. Spore suspension obtained from a spored-form culture of Aspergillus niger. • 2. Count of the spore suspension of Aspergillus niger. • 3. The possible toxic effect of the neutralizer on the spores in the absence of the product is valued. • 4. Evaluation of the neutralizing effect of the neutralizer over the product. • 5. Evaluation of the fungicide effect of the product. • 6. Result calculation. Results:
as §1
Fungicide activity is calculated as follows: R=N×0.1/Na N cfu/mL of the fungical spore suspension Na cfu/mL of the fungicide activity The calculated reduction of a solution of: • 100 μg/mL of LAE is R=3.1×10^2 cfu/mL • 200 μg/mL of LAE is R=1.3×10^3 cfu/mL • 300 μg/mL of LAE is R=1.4×10^3 cfu/mL • 400 μg/mL of LAE is R=1.7×10^3 cfu/mL • 500 μg/mL of LAE is R>10^4 cfu/mL
A product is considered fungicide if its use results in a reduction in the number of Aspergillus niger fungical spores equal to or above 10^4 after being in contact for 60 minutes in the conditions set in UNE-EN 1275.

[10] = test system: Mycobacterium phlei ATCC 41423; settings: listed under Gram − Bacteria; cited from earlier work
[11] = test system: Gliocadium virens ATCC 4645; settings: Fungi; cited from earlier work
[12] = LAE 12.5 μg/mL, 60 minutes contact
[13] = LAE 25 μg/mL, 60 minutes contact
[14] = LAE 50 μg/mL, 60 minutes contact
[15] = LAE 100 μg/mL, 60 minutes contact
[16] = LAE 300 μg/mL, 60 minutes contact

For `CCCCCCCCCCCC(=O)N[C@@H](CCCN=C(N)N)C(=O)OCC.Cl` [LAE, ethyl ester of the lauramide of the arginine monohydrochloride], the M.I.C. [1] is listed as 16 ppm, the “calculated reduction R=N×0.1/Na” value ([2]; 50 ppm of LAE, 60 minutes) is listed as 3.5×10^2 cfu/mL and the “calculated reduction R=N×0.1/Na” value ([2]; 100 ppm of LAE, 60 minutes) is listed as 3.4×10^2 cfu/mL. For the same compound, the “calculated reduction R=N×0.1/Na” value ([2]; 150 ppm of LAE, 60 minutes) was 4.3×10^2 cfu/mL, the “calculated reduction R=N×0.1/Na” value ([2]; 250 ppm of LAE, 60 minutes) was > 10^3 cfu/mL and the “concentration displaying sporicidal activity (reduction equal or above 10^3)” value ([2]; 60 minutes contact, EN 13704) was no less than 250 ppm. The “LAE concentration from which there is inhibition of spore germination” value ([2]; 60 minutes) was no less than 50 ppm, the “Test of LAE sporicidal activity (Na), surviving spores count” value (“Test of LAE sporicidal activity (Na)” for short) [2, 12] was greater than 300 cfu/mL and the “Test of LAE sporicidal activity (Na)” value [2, 13] was greater than 300 cfu/mL. The “Test of LAE sporicidal activity (Na)” value [2, 14] was 5.2 × 10^3 cfu/mL, the “Test of LAE sporicidal activity (Na)” value [2, 15] was 5.3 × 10^3 cfu/mL and the “Test of LAE sporicidal activity (Na)” value ([2]; LAE 150 μg/mL, 60 minutes contact) was 4.2 × 10^3 cfu/mL. For the same compound, the “Test of LAE sporicidal activity (Na)” value ([2]; LAE 250 μg/mL, 60 minutes contact) was “No”, the “Test of LAE sporicidal activity (Na)” value [2, 16] was “No” and the M.I.C. [3] was 32 ppm. For the same compound, the M.I.C. [4] was 32 ppm, the M.I.C. [5] was 16 ppm and the M.I.C. [6] was 10 ppm. The M.I.C. [7] was 128 ppm, the M.I.C. [8] was 16 ppm and the M.I.C. (Escherichia coli 0157H7) was 20 ppm. The “calculated reduction R=N×0.1/Na” value ([9]; 100 μg/mL of LAE, 60 minutes) was 3.1×10^2 cfu/mL, the “calculated reduction R=N×0.1/Na” value ([9]; 200 μg/mL of LAE, 60 minutes) was 1.3×10^3 cfu/mL and the “calculated reduction R=N×0.1/Na” value ([9]; 300 μg/mL of LAE, 60 minutes) was 1.4×10^3 cfu/mL. For the same compound, the “calculated reduction R=N×0.1/Na” value ([9]; 400 μg/mL of LAE, 60 minutes) was 1.7×10^3 cfu/mL, the “calculated reduction R=N×0.1/Na” value ([9]; 500 μg/mL of LAE, 60 minutes) was > 10^4 cfu/mL and the “concentration at which fungicide active (reduction equal to or above 10^4)” value ([9]; 60 minutes contact, UNE-EN 1275) was no less than 500 ppm. The “concentration from which a total inhibition of fungical spore germination has been observed” value ([9]; 60 minutes) was no less than 500 ppm, the “concentration from which there is inhibition of fungical spore germination” value ([9]; 60 minutes) was no less than 100 ppm and the “Test of LAE fungicide activity (Na), surviving spores count” value (“Test of LAE fungicide activity (Na)” for short) [9, 12] was greater than 300 cfu/mL. The “Test of LAE fungicide activity (Na)” value [9, 13] was greater than 300 cfu/mL, the “Test of LAE fungicide activity (Na)” value [9, 14] was greater than 300 cfu/mL and the “Test of LAE fungicide activity (Na)” value [9, 15] was 1.6 × 10^4 cfu/mL. For the same compound, the “Test of LAE fungicide activity (Na)” value ([9]; LAE 200 μg/mL, 60 minutes contact) was 3.9 × 10^3 cfu/mL, the “Test of LAE fungicide activity (Na)” value [9, 16] was 3.5 × 10^3 cfu/mL and the “Test of LAE fungicide activity (Na)” value ([9]; LAE 400 μg/mL, 60 minutes contact) was 3.0 × 10^3 cfu/mL. For the same compound, the “Test of LAE fungicide activity (Na)” value ([9]; LAE 500 μg/mL, 60 minutes contact) was “No”, the “Test of LAE fungicide activity (Na)” value ([9]; LAE 1000 μg/mL, 60 minutes contact) was “No” and the M.I.C. [10] was 2 ppm. The M.I.C. [11] was 32 ppm.

— patent US8933122B2, “Use of cationic surfactants as sporicidal agents” (Laboratorios Miret, S.A., priority 2008, dated 2015)
